Laboratory results reported in patent US11806350B2, “Prevention and/or treatment of CNS disorders” (ILDONG PHARMACEUTICAL CO., LTD., priority 2020, dated 2023).

Legend:
[1] = target: T1, Human recombinant adenosine A2A receptors (Homo sapiens, UniProt P29274); experiment: Human adenosine A2A receptor binding assay ([3H]CGS-21680); details: membranes of HEK-293 cells, 50 nM [3H]CGS-21680, 90 minutes at 25° C.; read-out: hA2A Ki
T1 construct: expressed in transfected cells; host or cells: HEK-293 cells (membrane preparation)
T1 sequence (P29274 whole entry): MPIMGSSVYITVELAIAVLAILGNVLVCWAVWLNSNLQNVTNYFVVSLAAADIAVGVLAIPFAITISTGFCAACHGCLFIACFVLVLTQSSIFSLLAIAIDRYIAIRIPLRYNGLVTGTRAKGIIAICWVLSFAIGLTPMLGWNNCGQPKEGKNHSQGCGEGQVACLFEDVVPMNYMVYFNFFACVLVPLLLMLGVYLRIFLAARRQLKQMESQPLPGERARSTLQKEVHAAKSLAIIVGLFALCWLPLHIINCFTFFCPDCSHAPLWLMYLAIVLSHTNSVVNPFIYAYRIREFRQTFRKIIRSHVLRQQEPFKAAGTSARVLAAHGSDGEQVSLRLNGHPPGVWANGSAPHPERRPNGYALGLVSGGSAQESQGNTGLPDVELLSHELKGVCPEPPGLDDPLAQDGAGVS
Protocol: 2.2 Human Adenosine A2A Receptor Binding Assay
Test compound is weighed, dissolved in DMSO to make a stock solution of 10 mM, diluted with DMSO to prepare working solutions, then 100-fold diluted to the indicated concentrations. Human recombinant adenosine A2A receptors expressed in HEK-293 cells were used to prepare membranes in incubation buffer (50 mM Tris-HCl, pH 7.4, 10 mM MgCl2, 1 mM EDTA, 2 U/ml Adenosine Deaminase). Test compound or vehicle (2.2 μL) was added in 200 μL of membranes and incubated with 20 μL of 50 nM [^3H] […] Non-specific binding was estimated in the presence of 50 μM NECA (5′-N-ethylcarboxamidoadenosine). The incubation was stopped by vacuum filtration onto 0.3% PEI (polyethylenimine) presoaked GF/B filters using a harvester followed by four washes with ice-cold 50 mM Tris-HCl, pH 7.4, and the radioactivity on GF/B filtermats counted in a scintillation counter (PerkinElmer TOPCOUNT™) to determine [^3H] […] Final concentration of vehicle DMSO is 1%.
(§1) Data is fitted using the non-linear curve fitting routines in Meth-IQ software (ID Business Solutions Ltd., UK). IC50 is converted to Ki by Cheng-Prusoff equation: Ki=IC50/(1+[L]/KD) where [L] is concentration of radiolabeled ligand used in the assay.

[2] = target: T2, Human recombinant adenosine A1 receptors (Homo sapiens, UniProt P30542); experiment: Human adenosine A1 receptor binding assay ([3H]DPCPX); details: membranes of CHO-K1 cells, 1 nM [3H]DPCPX, 90 minutes at 25° C.; read-out: hAl Ki
T2 construct: expressed in transfected cells; host or cells: CHO-K1 cells (membrane preparation)
T2 sequence (P30542 1-326): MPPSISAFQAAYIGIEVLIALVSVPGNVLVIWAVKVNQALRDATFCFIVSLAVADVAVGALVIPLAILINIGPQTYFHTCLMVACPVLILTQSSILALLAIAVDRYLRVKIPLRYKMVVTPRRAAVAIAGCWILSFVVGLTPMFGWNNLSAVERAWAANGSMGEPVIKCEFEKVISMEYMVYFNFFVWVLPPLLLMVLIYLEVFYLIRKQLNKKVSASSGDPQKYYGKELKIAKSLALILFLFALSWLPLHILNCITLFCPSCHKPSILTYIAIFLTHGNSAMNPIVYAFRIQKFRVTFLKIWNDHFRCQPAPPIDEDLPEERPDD
Protocol: 2.1 Human Adenosine A1 Receptor Binding Assay
Test compound is weighed, dissolved in DMSO to make a stock solution of 10 mM, diluted with DMSO to prepare working solutions, then 100-fold diluted to the indicated concentrations. Human recombinant adenosine A1 receptors expressed in CHO-K1 cells were used to prepare membranes in incubation buffer (20 mM HEPES (4-(2-hydroxyethyl)-1-piperazineethanesulfonic acid) pH 7.4, 10 mM MgCl2, 100 mM NaCl). Test compound or vehicle (2.2 μL) was added in 200 μL of membranes and incubated with 20 μL of 1 nM [^3H] DPCPX (8-cyclopentyl-1,3-dipropylxanthine) for 90 minutes at 25° C. Non-specific binding was estimated in the presence of 100 μM R(−)-PIA ((R)—N-(1-methyl-2-phenylethyl)adenosine). The incubation was stopped by vacuum filtration onto 0.3% PEI (polyethylenimine) presoaked GF/B filters using a harvester followed by four washes with ice-cold 50 mM Tris-HCl, pH 7.4, and the radioactivity on GF/B filtermats counted in a scintillation counter (PerkinElmer Topcount™) to determine [^3H] DPCPX specifically bound. Final concentration of vehicle DMSO is 1%.
as §1

[3] = system: unilateral 6-hydroxydopamine (6-OHDA) lesion animal model of Parkinson's Disease; experiment: Cylinder test (forelimb use asymmetry) in 6-OHDA lesioned rats; assay type: in vivo, Wistar Han rats
Protocol: (§2) To generate animal model of Parkinson's Disease (PD), a number of 67 female Wistar Han rats of approximately 9 weeks of age received unilateral 6-hydroxydopamine (6-OHDA) lesion. To induce the 6-OHDA lesion, each of the animals received one injection with 2 μl (4 μg/μl) in the medial forebrain bundle (MFB). 6-OHDA is widely used to lesion the nigrostriatal dopaminergic system as a model of PD.
(§3) Three weeks after the injections, cylinder test for the evaluation of locomotor asymmetry was performed to determine the efficacy of the 6-OHDA lesion (4 animals died before testing). Based on the results of the cylinder test, 6-OHDA lesioned animals were further included in the study. In compound standalone testing groups (B+C), animals (n=52) were received L-DOPA (Levodopa or L-3,4-dihydroxyphenylalanine) priming (2 animals died before group allocation). […]
Cylinder test was performed on treatment days (4 days after end of L-DOPA priming) with all animals used for testing. […] Each animal was individually evaluated for 5 minutes. The number of contacts on the cylinder wall with the right paw, left and both paws simultaneously were counted. The results were given in percentage and calculating is done as follows: the test total sum of contacts on the cylinder wall with the right paw, left paw and both totaled 100%, based on this, a percentage value for each finding was calculated (Araujo, 2013).

[4] = system: unilateral 6-hydroxydopamine (6-OHDA) lesion animal model of Parkinson's Disease; experiment: Axial, limb and orolingual abnormal involuntary movement scores (ALO AIMs) in 6-OHDA lesioned, L-DOPA primed rats; assay type: in vivo, Wistar Han rats; details: after 4 days L-DOPA priming wash out; per oral (1-30 mg/kg) or intranasal (0.3-10 mg/kg); FIG. 2B
Protocol: as §2
as §3, with “allocation). Animals (n=11) not showing symptoms were eliminated without any further administration of test compounds or tissue collection.” for “allocation).”
ALO test was performed on treatment days (4 days after end of L-DOPA priming) with all animals used for the compound stand alone testing. ALO AIMs were scored starting 5 min […] after the vehicle, L-DOPA/Benserazide and IN administration of the test compound, and 2h (+/−5 min) after PO administration of the test compound and every 20 min thereafter for 3 h. […]
ALO AIMs were scored for 1 min, every 20 min for 180 min. […]

In the case of `Cc1cc(Cn2ncc3c(-c4ccnc(C#N)c4)nc(N)nc32)ccc1N` [Compound 230, 4-(6-amino-1-(4-amino-3-methylbenzyl)-1H-pyrazolo[3,4-d]pyrimidine-4-yl)picolinonitrile], the Ki [1] is reported as 1 to 5 µM and the Ki [2] is reported as greater than 10 µM.
In the case of `N#Cc1cccc(-c2nc(N)nc3c2cnn3Cc2ccc(N)c(C(F)(F)F)c2)c1` [Compound 210, 3-(6-amino-1-(4-amino-3-(trifluoromethyl)benzyl)-1H-pyrazolo[3,4-d]pyrimidine-4-yl)benzonitrile], the Ki [1] is reported as less than 0.02 µM, the Ki [2] is reported as no more than 0.1 µM and the “contralateral limb usage in cylinder test” value ([3]; IN route and PO route, compared to the vehicle treated group, FIGS. 3A, 3B) is reported as “concentration related trend towards increased contralateral limb usage”. For the same compound, the “contralateral limb usage in cylinder test, intranasal compared to PO administration” value ([3]; intranasal administration compared to the PO administration group) was “more pronounced concentration related trend” and the “L-DOPA/Benserazide induced dyskinesia-like side effects (ALO AIM scores)” value [4] was “did not induce L-DOPA/Benserazide induced dyskinesia-like side effects”.
`N#Cc1ccnc(-c2nc(N)nc3c2cnn3Cc2ccc(N)c(C(F)(F)F)c2)c1` [Compound 235, 2-[6-amino-1-[[4-amino-3-(trifluoromethyl)phenyl]methyl]pyrazolo[3,4-d]pyrimidine-4-yl]pyridine-4-carbonitrile] was tested, and the Ki [1] was less than 0.02 µM and the Ki [2] was 0.1 to 1 µM.
`Cc1cc(Cn2ncc3c(-c4cncc(C#N)c4)nc(N)nc32)ccc1N` [Compound 229, 5-(6-amino-1-(4-amino-3-methylbenzyl)-1H-pyrazolo[3,4-d]pyrimidine-4-yl)nicotinonitrile] showed a Ki [1] of 1 to 5 µM and a Ki [2] greater than 10 µM.
